In US20170064954A1, “HERBICIDAL COMPOSITIONS CONTAINING 4-AMINO-3-CHLORO-6-(4-CHLORO-2-FLUORO-3-METHOXYPHENYL)PYRIDINE-2-CARBOXYLIC ACID OR A DERIVATIVE THEREOF, A TRIAZOLOPYRIMIDINE SULFONAMIDE HERBICIDE OR A DERIVATIVE THEREOF, AND A CELL MEMBRANE DISRUPTOR HERBICIDE OR A DERIVATIVE THEREOF” (Dow AgroSciences LLC, priority 2015, published 2017):
“And” between values parts separate entries of the source, which are not always exact repeats. Equal entries are not always repeated.

Legend:
Experiment in all cases: Field trial, post-emergence foliar application, visually rated % weed control
Format in all cases: in vivo
[1] = test system: Conyza species (fleabane, ERISS)
Excerpt: (§1) Treatments consisted of the methyl ester of 4-amino-3-chloro-6-(4-chloro-2-fluoro-3-methoxyphenyl)pyridine-2-carboxylic acid (Cmpd 1, halauxifen-methyl) and diclosulam in combination as GF-3220. The form of compound of formula (I) was applied on an acid equivalent basis, and diclosulam was applied on an active ingredient basis. Glufosinate-ammonium salt was applied as various commercial formulations containing 480 grams acid equivalent per liter (g ae/L). Saflufenacil was applied as a commercial formulation containing 700 grams per kilogram (g/kg). Paraquat was applied as a commercial formulation containing 200 g/L.
(§2) Field trials were conducted under standard field conditions. Plot sizes varied from 2-4 meters (m) wide by 2-5 m long. Treatments were applied with small plot backpack sprayers, using pressurized carbon dioxide (CO2) as propellant. Pressure varied from 22-40 pounds per square inch (PSI), with spray tips typically of a Flat Fan type applying water diluent at 100-150 liters per hectare (L/ha). Boom sizes varied from 2-4 m in width. Weed sizes varied, but all treatments were applied as post-emergence treatments to weeds from 2 leaf to 2 tiller growth stages varying from 2-15 inches in height. No additional adjuvant was mixed with the treatments applied in the field.
(§3) Results in Tables 1 to 7 are field trial results for foliar applied compositions. The values reported are percent (%) control visually rated. The predicted percent (%) weed control was determined using Colby's equation. • The compositions tested, application rates employed, plant species tested, and results are given in Tables 1 to 7. • The following abbreviations are used in Tables 1 to 7: • ERISS=Conyza species (fleabane, ERISS) • ERISU=Conyza sumatrensis (Guernsey fleabane) • EPHHL=Euphorbia heterophylla L. (wild poinsettia) • IAQGR=Ipomoea grandifolia (Corda-de-viola) • ERIBO=Conyza bonariensis (fleabane) • g ae/ha=grams acid equivalent per hectare • g ai/ha=grams active ingredient per hectare • Mean % weed control=observed value of percent (%) control rated visually • Predicted mean % weed control=expected value of percent (%) control as calculated by Colby's equation • Cmpd 1=methyl 4-amino-3-chloro-6-(4-chloro-2-fluoro-3-methoxyphenyl)pyridine-2-carboxylate, halauxifen-methyl, or ARYLEX®

[2] = test system: Conyza bonariensis (fleabane, ERIBO); details: Table 7, ERIBO, 21DAA, Paraquat 200 g ai/ha
Excerpt: as §1, §2, §3

[3] = test system: Conyza sumatrensis (Guernsey fleabane, ERISU)
Excerpt: as §1, §2, §3

[4] = test system: Ipomoea grandifolia (Corda-de-viola, IAQGR); details: Table 5, IAQGR, Paraquat 300 g ai/ha
Excerpt: as §1, §2, §3

[5] = test system: Euphorbia heterophylla L. (wild poinsettia, EPHHL); details: Table 4, EPHHL
Excerpt: as §1, §2, §3

`CC(C)N(C)S(=O)(=O)NC(=O)c1cc(-n2c(=O)cc(C(F)(F)F)n(C)c2=O)c(F)cc1Cl` [Saflufenacil, 2-chloro-5-[3,6-dihydro-3-methyl-2,6-dioxo-4-(trifluoromethyl)-1(2H)-pyrimidinyl]-4-fluoro-N-[[methyl(1-methylethyl)amino]sulfonyl]benzamide] was tested, and the “Mean % weed control” value ([1]; Table 2, ERISS, 17DAA, Saflufenacil 49 g ai/ha) was 52.5% and 66.3%, the “Mean % weed control” value ([1]; Table 2, ERISS, 28DAA, Saflufenacil 49 g ai/ha) was 66.3% and the “Mean % weed control” value ([1]; Table 2, ERISS, 43DAA, Saflufenacil 49 g ai/ha) was 77.5%.
With `C[n+]1ccc(-c2cc[n+](C)cc2)cc1` [Paraquat, 1,1′-dimethyl-4,4′-bipyridinediium] the “Mean % weed control” value [2] was 28.3%, the “Mean % weed control” value ([1]; Table 3, ERISS, 17DAA, Paraquat 400 g ai/ha) was 32.5% and 52.5% and the “Mean % weed control” value ([1]; Table 3, ERISS, 28DAA, Paraquat 400 g ai/ha) was 52.5% and 55%. The “Mean % weed control” value ([1]; Table 3, ERISS, 43DAA, Paraquat 400 g ai/ha) was 60% and 65%, the “Mean % weed control” value ([3]; Table 6, ERISU, 13DAA, Paraquat 100 g ai/ha) was 26.3% and the “Mean % weed control” value ([3]; Table 6, ERISU, 13DAA, Paraquat 200 g ai/ha) was 40%. For the same molecule, the “Mean % weed control” value ([3]; Table 6, ERISU, 22DAA, Paraquat 100 g ai/ha) was 41.3% and 41.1%, the “Mean % weed control” value ([3]; Table 6, ERISU, 22DAA, Paraquat 200 g ai/ha) was 56.3% and the “Mean % weed control” value ([3]; Table 6, ERISU, 28DAA, Paraquat 100 g ai/ha) was 47.5%. The “Mean % weed control” value ([3]; Table 6, ERISU, 28DAA, Paraquat 200 g ai/ha) was 61.3%, the “Mean % weed control” value ([4]; 14DAA) was 54.3% and the “Mean % weed control” value ([4]; 21DAA) was 45%. For the same molecule, the “Mean % weed control” value ([4]; 30DAA) was 39.8%, the “Mean % weed control” value ([5]; 14DAA, Paraquat 300 g ai/ha) was 81.8% and the “Mean % weed control” value ([5]; 21DAA, Paraquat 100 g ai/ha) was 56%. The “Mean % weed control” value ([5]; 21DAA, Paraquat 300 g ai/ha) was 82.8%, the “Mean % weed control” value ([5]; 30DAA, Paraquat 100 g ai/ha) was 48.3% and the “Mean % weed control” value ([5]; 30DAA, Paraquat 300 g ai/ha) was 81.8%.
`CP(=O)(O)CCC(N)C(=O)O` (stereo not drawn) [Glufosinate ammonium] was tested, and the “Mean % weed control” value ([3]; Table 1, ERISU, 17DAA, Glufosinate ammonium 366 g ai/ha) was 58.75% and 71.25%, the “Mean % weed control” value ([3]; Table 1, ERISU, 28DAA, Glufosinate ammonium 366 g ai/ha) was 71.25% and the “Mean % weed control” value ([3]; Table 1, ERISU, 43DAA, Glufosinate ammonium 366 g ai/ha) was 78.75%.
